Tests used:
[1] = tested on: human embryonic stem cell derived neural stem cells (NSCs); experiment: Neural stem cell proliferation assay (neurogenesis assay, ATP levels by CellTiterGlo); assay type: cell-based; settings: 96 h, compound concentration at which 150% activity of control (100%) is reached, ATP levels after 4 days incubation, dose response 8 μM to 8 nM
Method: Neural Stem Cell Proliferation Assay
Neurogenic properties of small molecules are determined based on the proliferation of human embryonic stem cell derived neural stem cells (NSCs) which were derived via a dual smad inhibition as previously described (Chambers, S. M., et al., Highly efficient neural conversion of human ES and iPS cells by dual inhibition of SMAD signaling, Nature biotechnology, 2009. 27(3): p. 275-80.)
Compounds respond is measured by the increase in cells based on ATP levels (Promega:CellTiterGlo®) after an incubation period of 4 days.
NSCs are thawed and expanded over 3 passages. On the 14th day, NSCs are seeded in Polyornithin/Laminin coated 384 well plates at a cell density of 21′000 cells/cm^2 in a media volume of 38 μl.
4 hours after cell seeding, compound solutions are added at a volume of 2 μl. Stock solutions of the compounds (water, 5% DMSO) are diluted to obtain a dose response (11 points, dilution factor is 2), ranging from 8 μM to 8 nM. Controls are run to consistently determine the neurogenic properties of the cells: • Negative (neutral) control is cell culture Media (final DMSO concentration: 0.25%). Positive controls are: • 1. cell culture Media+100 ng/ml FGF2 (final DMSO concentration: 0.1%) • 2. cell culture Media+20 ng/ml EGF (final DMSO concentration: 0.1%) • 3. cell culture Media+100 ng/ml Wnt3a (final DMSO concentration: 0.1%)
After 4 days incubation at 37° C., 5% CO2, the amount of ATP per well is quantified. The ATP concentration is proportional to the cell number. ATP is quantified by using the Promega CellTiterGlo® kit. The CellTiterGlo® reagents contain a cell lysis buffer, a thermo stable luciferase (UltraGlo™ recombinant luciferase), magnesium and luciferin. Luciferin reacts with ATP producing oxyluciferin, AMP and light. The luminescence signal is proportional to the ATP content.
The value of negative (neutral) control is determined for each assay plate by taking the average of 16 negative control wells. The neurogenic compound response is calculated for each compound as (compound/Negative Control)* 100.
The values of EC150 from the dose response curve are determined for each test compound. The EC150 is the compound concentration at which 150% activity of control (100%) is reached.

Structure (SMILES)	melting point [°C]	EC (150% of control) [1] [µM]
COc1ccc(-c2onc3ccc(-c4ccnn4-c4ccc(C)cc4)cc23)cc1 [Example 19, 3-(4-Methoxy-phenyl)-5-(2-p-tolyl-2H-pyrazol-3-yl)-benzo[c]isoxazole]	165	0.045
Fc1ccc(-c2onc3ccc(-c4ccnn4-c4ccccn4)cc23)cc1 [Example 35, 3-(4-Fluoro-phenyl)-5-(2-pyridin-2-yl-2H-pyrazol-3-yl)-benzo[c]isoxazole]	175	0.04
COc1ccc(-n2nccc2-c2ccc3noc(-c4ccc(Cl)cc4)c3c2)cc1 [Example 23, 3-(4-Chloro-phenyl)-5-[2-(4-methoxy-phenyl)-2H-pyrazol-3-yl]-benzo[c]isoxazole]	177	0.31
Cc1ccc(-c2onc3ccc(-c4ccnn4-c4ccc(F)cc4)cc23)cc1 [Example 11, 5-[2-(4-Fluoro-phenyl)-2H-pyrazol-3-yl]-3-p-tolyl-benzo[c]isoxazole]	158	0.23
COc1ccc(-c2onc3ccc(-c4ccnn4-c4ccc(C)cc4)cc23)cc1F [Example 39, 3-(3-Fluoro-4-methoxy-phenyl)-5-(2-p-tolyl-2H-pyrazol-3-yl)-benzo[c]isoxazole]	197	0.25
COc1ccc(-n2nccc2-c2ccc3noc(-c4ccc(C)cc4)c3c2)cc1 [Example 22, 5-[2-(4-Methoxy-phenyl)-2H-pyrazol-3-yl]-3-p-tolyl-benzo[c]isoxazole]	159	0.18
COc1ccc(-c2onc3ccc(-c4ccnn4-c4ccc(OC)cc4)cc23)cc1 [Example 24, 3-(4-Methoxy-phenyl)-5-[2-(4-methoxy-phenyl)-2H-pyrazol-3-yl]-benzo[c]isoxazole]	133	0.26
Cc1ccc(-c2onc3ccc(-c4ccnn4-c4ccccc4Cl)cc23)cc1 [Example 43, 5-[2-(2-Chloro-phenyl)-2H-pyrazol-3-yl]-3-p-tolyl-benzo[c]isoxazole]	176	0.15
COc1ccc(-c2onc3ccc(-c4ccnn4-c4ccc(F)cc4)cc23)cc1 [Example 13, 5-[2-(4-Fluoro-phenyl)-2H-pyrazol-3-yl]-3-(4-methoxy-phenyl)-benzo[c]isoxazole]	153	0.39
Cc1ccc(-c2onc3ccc(-c4ccnn4-c4ccc(C)cc4)cc23)cc1 [Example 16, 3-p-Tolyl-5-(2-p-tolyl-2H-pyrazol-3-yl)-benzo[c]isoxazole]	190	0.055
COc1ccc(-n2nccc2-c2ccc3noc(-c4cccc(F)c4)c3c2)cc1 [Example 21, 3-(3-Fluoro-phenyl)-5-[2-(4-methoxy-phenyl)-2H-pyrazol-3-yl]-benzo[c]isoxazole]	203	0.51
Cc1ccc(-n2nccc2-c2ccc3noc(-c4ccc(Cl)cc4)c3c2)cc1 [Example 18, 3-(4-Chloro-phenyl)-5-(2-p-tolyl-2H-pyrazol-3-yl)-benzo[c]isoxazole]	204	0.093
Clc1ccc(-c2onc3ccc(-c4ccnn4-c4ccccc4Cl)cc23)cc1 [Example 42, 3-(4-Chloro-phenyl)-5-[2-(2-chloro-phenyl)-2H-pyrazol-3-yl]-benzo[c]isoxazole]	172	0.3
Clc1ccc(-c2onc3ccc(-c4ccnn4-c4ccc(Cl)cc4)cc23)cc1 [Example 27, 3-(4-Chloro-phenyl)-5-[2-(4-chloro-phenyl)-2H-pyrazol-3-yl]-benzo[c]isoxazole]	222	0.46

The next lines start with results.

melting point [°C]	Structure (SMILES)	EC (150% of control) [1] [µM]
162	COc1ccc(-c2onc3ccc(-c4ccnn4-c4ccc(F)cc4)cc23)cc1F [Example 37, 3-(3-Fluoro-4-methoxy-phenyl)-5-[2-(4-fluoro-phenyl)-2H-pyrazol-3-yl]-benzo[c]isoxazole]	1.1
147	Cc1ccc(-c2onc3ccc(-c4ccnn4-c4ccc(F)cc4F)cc23)cc1 [Example 30, 5-[2-(2,4-Difluoro-phenyl)-2H-pyrazol-3-yl]-3-p-tolyl-benzo[c]isoxazole]	0.04
171	Fc1ccc(-c2onc3ccc(-c4ccnn4-c4ccccc4F)cc23)cc1 [Example 1, 3-(4-Fluoro-phenyl)-5-[2-(2-fluoro-phenyl)-2H-pyrazol-3-yl]-benzo[c]isoxazole]	0.12
173	Cc1ccc(-c2onc3ccc(-c4ccnn4-c4ccccc4F)cc23)cc1 [Example 3, 5-[2-(2-Fluoro-phenyl)-2H-pyrazol-3-yl]-3-p-tolyl-benzo[c]isoxazole]	0.12
173	Cc1ccc(-n2nccc2-c2ccc3noc(-c4ccc(C(F)(F)F)cc4)c3c2)cc1 [Example 17, 5-(2-p-Tolyl-2H-pyrazol-3-yl)-3-(4-trifluoromethyl-phenyl)-benzo[c]isoxazole]	1.13
183	COc1ccc(-c2onc3ccc(-c4ccnn4-c4ccc(F)cc4F)cc23)cc1F [Example 40, 5-[2-(2,4-Difluoro-phenyl)-2H-pyrazol-3-yl]-3-(3-fluoro-4-methoxy-phenyl)-benzo[c]isoxazole]	0.23
202	Fc1ccccc1-n1nccc1-c1ccc2noc(-c3ccc(Br)cc3)c2c1 [Example 7, 3-(4-Bromo-phenyl)-5-[2-(2-fluoro-phenyl)-2H-pyrazol-3-yl]benzo[c]isoxazole]	0.054
168	COc1ccc(-c2onc3ccc(-c4ccnn4-c4ccccc4F)cc23)cc1F [Example 36, 3-(3-Fluoro-4-methoxy-phenyl)-5-[2-(2-fluoro-phenyl)-2H-pyrazol-3-yl]-benzo[c]isoxazole]	0.16
188	Fc1ccc(-n2nccc2-c2ccc3noc(-c4ccc(Cl)cc4)c3c2)cc1 [Example 12, 3-(4-Chloro-phenyl)-5-[2-(4-fluoro-phenyl)-2H-pyrazol-3-yl]-benzo[c]isoxazole]	0.26
173	Cc1ccc(-n2nccc2-c2ccc3noc(-c4ccc(F)cc4)c3c2)cc1 [Example 14, 3-(4-Fluoro-phenyl)-5-(2-p-tolyl-2H-pyrazol-3-yl)-benzo[c]isoxazole]	0.091
191	Fc1ccccc1-n1nccc1-c1ccc2noc(-c3ccc(Cl)cc3)c2c1 [Example 5, 3-(4-Chloro-phenyl)-5-[2-(2-fluoro-phenyl)-2H-pyrazol-3-yl]-benzo[c]isoxazole]	0.033
159	Fc1ccc(-n2nccc2-c2ccc3noc(-c4ccc(C(F)(F)F)cc4)c3c2)c(F)c1 [Example 31, 5-[2-(2,4-Difluoro-phenyl)-2H-pyrazol-3-yl]-3-(4-trifluoromethyl-phenyl)-benzo[c]isoxazole]	0.96
149	Fc1ccc(-c2onc3ccc(-c4ccnn4-c4ccc(F)cc4F)cc23)cc1 [Example 28, 5-[2-(2,4-Difluoro-phenyl)-2H-pyrazol-3-yl]-3-(4-fluoro-phenyl)-benzo[c]isoxazole]	0.07

— US9440962B2, “Benzisoxazoles” (Hoffmann-La Roche Inc., priority 2012, dated 2016)
